Data: US6436421B1, “Pesticide compositions” (priority 1997, dated 2002)
Like-named read-outs stand apart in the source and are kept apart here.

Key:
[1] = format: physicochemical
Description: One method to evaluate the efficacy of a pesticide adjuvant is to measure its affect on the ability of the pesticide composition to resist wash-off from a surface. One skilled in the art will recognize that a pesticide which remains on the surface of a plant will be expected to have increased efficacy.
A suspension of the pesticide formulation was prepared by adding a premix of water and surfactant, with and without the polymer additives, followed by vigorous shaking of the mixtures by hand. Pieces of Parafilm™M laboratory film, a very soft, flexible, and hydrophobic film, were taped to plastic petrie dishes. The suspensions were sprayed with an automated sprayer as the petrie dishes with attached film were moved at a standard rate below the sprayer. The spray residues were allowed to dry, and a second application of spray was applied. One set of films was exposed, at an inclination of 45 degrees, to approximately 25 mm of water applied by a spray bar (equipped with TX-4 cone-type spray nozzles) that moved back and forth over the samples for a period of about 1 hour. The exposed films were allowed to dry. Another set of films was not exposed to water.
Infra-red spectra of the films were obtained by an Attenuated Total Reflection (ATR) technique. The films were pressed against a Zinc Selenide crystal that had been cleaned previously with methanol. Spectra were recorded with a Spectratech Allied Systems Fourier Transform Infra-Red Spectrometer, and stored in a computer. Peaks associated with pesticide residue were identified by inspection and peak areas were calculated by computer (Pesticide Peak Area, “PA”). A corresponding area for a Parafilm™ peak as similar as possible in peak location and size (in the same spectrum) was calculated (Film Peak Area, “FA”). […] A measure of the pesticide on the surface “P” was derived from the following calculation:
A relative measure of the amount of pesticide remaining after the above exposure to water was then derived from the following calculation: [formula]
Although the intensity of spectral peaks recorded with the ATR technique are very dependent on details of contact with the film, by obtaining a ratio of the pesticide peak to the film peak in the same spectral recording, different spectra can be compared with details of contact being compensated for, since they will have similar effects on the intensity of the pesticide absorption and the film absorption. The intensity of the pesticide peak relative to the film peak will depend on the degree of coverage of the film by the pesticide. To maximize coverage, the spraying was conducted twice. Furthermore, a wetting agent (surfactant) was included in the premix to promote wetting of the film by the spray droplets. Since exposure to water can result in re-distribution of the pesticide as well as wash-off of the pesticide, the measure of the amount remaining is only relative.
In all cases, a measured amount of pesticide was mixed with 270 grams of deionized water and 30 grams of 0.5% Silwet L-77 surfactant. This premix was divided into 50 gram portions. One portion was sprayed without adding polymer. For mixes containing polymer, 66.6 milligrams powder polymer or 1.32 g of a 5% solids dilution of the emulsion polymer were added to the 50 grams of premix.
TX-2 nozzle 12 inches above laboratory film.
58 psi (delivers 150 cc/minute).
Laboratory film moves at 1 mile/hour.
Fan nozzle 14 inches above laboratory film.
29 psi (Spray 15 cc with two passes over laboratory film at a rate to give 25 gallons/acre).

[2] = tested on: Cercospora arachidicola (Early Leaf Spot); assay: Peanut field test of disease control with mancozeb fungicide; format: in vivo
Description: (§1) For grapes, single plant plots with three replicates/treatment were treated at seven day intervals, with a total of seven applications. Treatments were water-based spray mixtures of mancozeb with or without polymer additives added to the water shortly before spraying. The mixtures were applied with a backpack sprayer using carbon dioxide pressure atomization (45 psi) with a boom having three D3 (Cone) nozzles, at a rate of 640 liters/hectare. The treatments included a control with no fungicide applied, a full rate of mancozeb without additive (2.8 kg active ingredient/hectare), and a half rate of mancozeb (1.4 kg active ingredient/hectare) with or without additives. The polymer additives were used at ⅓ kg. of additive solids/kg. of active ingredient. The mancozeb formulation was a wettable powder with 75% active ingredient.
(§2) Assessments of percent infection (of grape downy mildew caused by Plasmopara viticola) of foliage were made 7 days after treatment # 7 (7DAT#7). These assessments are tabulated below. Data were analyzed by Duncan's multiple range test, using P=0.05.
Peanuts were evaluated the same as grapes except that the plots were 1 meter×5 meter (1 row), with 4 replicates per treatment, there were 9 applications, the boom had five D2 (C45) nozzles, the full rate of mancozeb was 1.6 kg active ingredient/hectare, the final assessment was 23 days after treatment #9 (23DAT#9), and the predominant disease at this time was Cercospora arachidicola (Early Leaf Spot).
(§3) Three different solid redispersible powders were evaluated; Powders I and II from the previous example and powder V, an all acrylic copolymer (Drycryl™DP-2904 redispersible powder, a cement modifier of the Rohm and Haas Company). Three different emulsion polymers were evaluated for comparison; Emulsion IV from the previous example; Emulsion VI, a poly(vinylacetate) emulsion (Rovace™ 117 emulsion from the Rohm and Haas Company, used as a general purpose adhesive component); and Emulsion VII, an acrylic emulsion polymer (Rhoplex™ 2438 emulsion from the Rohm and Haas Company, a component of elastomeric wall coatings).
(§4) In several of the evaluations, a surfactant was added to the spray mixture. When used, the surfactant was a solid powder of 90% dioctyl sodium sulfosuccinate and 10% sodium benzoate (Aerosol® OTB surfactant from Cytec Company).

[3] = tested on: grape downy mildew caused by Plasmopara viticola; assay: Grape field test of disease control with mancozeb fungicide; format: in vivo
Description: as §1, §2, §3, §4

Beet Armyworm larvae = assay: Beet Armyworm control on potted rice plants using tebufenozide; format: in vivo
From the text: Rice plants grown in pots were sprayed with one of two different versions of a 300 parts per million (based on active ingredient level) suspension of tebufenozide in water. In one version, the tebufenozide was supplied as Mimic® 10 W insecticide, a wettable powder, from Rohm and Haas Company. In the second version, approximately 30% by weight of the carrier in the Mimic® 10 W insecticide was replaced with Powder V from the above examples and approximately 10% by weight of the clay carrier was replaced by Aerosol®OTB surfactant. One portion of each of the sprayed plant samples was subjected to approximately 25 millimeters of water applied by a spray bar to simulate rain. The plants were cut and fed to Beet Armyworm larvae. Percent mortality was then evaluated.

beet armyworm = assay: Beet Armyworm control under field conditions on Chinese kale; format: in vivo; settings: 300 g of tebufenozide per hectare, compared to untreated control plot
Description: Each of two different plots of Chinese kale grown under typical field conditions was treated with one of the two tebufenozide formulations described above at an application rate of 300 g of tebufenozide per hectare in 750 liters of water per hectare. The percent beet armyworm mortality in each plot was compared to an untreated control plot.

[4] = Half rate, Emulsion IV, no surfactant
[5] = Half rate, Emulsion VI, no surfactant
[6] = Half rate, Emulsion VI, with surfactant
[7] = Half rate, Emulsion VII, no surfactant
[8] = Half rate, Powder I, no surfactant
[9] = Half rate, Powder II, no surfactant
[10] = Half rate, Powder II, with surfactant
[11] = Half rate, Powder V, no surfactant

| Compound | % AI Retained After One Inch Spray-Bar Rain, M (mean) ([1]; No Polymer) | % AI Retained After One Inch Spray-Bar Rain, M (mean) ([1]; with Emulsion IV) | % AI Retained After One Inch Spray-Bar Rain, M (mean) ([1]; with Powder I) | % AI Retained After One Inch Spray-Bar Rain, M (mean) ([1]; with Powder II) | % AI Retained After One Inch Spray-Bar Rain, M (mean) ([1]; with Powder III) | other results |
| --- | --- | --- | --- | --- | --- | --- |
| N#CC(CCc1ccc(Cl)cc1)(Cn1cncn1)c1ccccc1 (stereo not shown) [fenbuconazole] | 9% | 83% | 63% | 82% | 48% | – |
| CN(C)C(CSC(N)=O)CSC(N)=O [cartap] | 4% | 3% | 5% | 8% | 8% | – |
| manganese ethylenebisdithiocarbamate [maneb] | 16% | 103% | 76% | 108% | 86% | – |
| CCCCC(C#N)(Cn1cncn1)c1ccc(Cl)cc1 (stereo not shown) [myclobutanil] | 13% | 74% | 56% | 77% | 44% | – |
| CNC(=O)Oc1cccc2c1OC(C)(C)C2 [carbofuran] | 3% | 9% | 39% | 23% | 16% | – |
| N#Cc1c(Cl)c(Cl)c(Cl)c(C#N)c1Cl [chlorothalonil] | 2% | 12% | 16% | 54% | 4% | – |
| [Cu+2].[OH-].[OH-] [copper hydroxide] | 20% | 11% | 22% | 80% | 21% | – |
| OC(c1ccc(Cl)cc1)(c1ccc(Cl)cc1)C(Cl)(Cl)Cl [dicofol] | 18% | 95% | 76% | 62% | 62% | – |
| mancozeb | – | – | – | – | – | Infection on Peanut 23DAT#9 ([2]; Full rate (1.6 kg active ingredient/hectare), no polymer additive, no surfactant): 27.5 cd percent; Infection on Peanut 23DAT#9 [2, 4]: 25.0 de percent; Infection on Peanut 23DAT#9 [2, 5]: 22.5 ef percent; Infection on Peanut 23DAT#9 [2, 6]: 13.8 h percent; Infection on Peanut 23DAT#9 [2, 7]: 21.3 f percent; Infection on Peanut 23DAT#9 [2, 8]: 23.8 ef percent; Infection on Peanut 23DAT#9 [2, 9]: 32.5 c percent; Infection on Peanut 23DAT#9 [2, 10]: 17.5 g percent; Infection on Peanut 23DAT#9 [2, 11]: 22.5 ef percent; Infection on Peanut 23DAT#9 ([2]; Half rate, no polymer additive, no surfactant): 41.3 b percent; Infection on Grape 7DAT#7 ([3]; Full rate (2.8 kg active ingredient/hectare), no polymer additive, no surfactant): 41.7 cd percent; Infection on Grape 7DAT#7 ([3]; Half rate (1.4 kg active ingredient/hectare), no polymer additive, no surfactant): 63.3 b percent; Infection on Grape 7DAT#7 [3, 4]: 38.3 de percent; Infection on Grape 7DAT#7 [3, 5]: 43.3 cd percent; Infection on Grape 7DAT#7 [3, 6]: 31.7 fg percent; Infection on Grape 7DAT#7 [3, 7]: 41.7 cd percent; Infection on Grape 7DAT#7 [3, 8]: 46.7 c percent; Infection on Grape 7DAT#7 [3, 9]: 43.3 cd percent; Infection on Grape 7DAT#7 [3, 10]: 28.3 g percent; Infection on Grape 7DAT#7 [3, 11]: 46.7 c percent |
| CNC(=O)Oc1cccc2ccccc12 [carbaryl] | 25% | 40% | 31% | 32% | 27% | – |
| CCC(=O)Nc1ccc(Cl)c(Cl)c1 [propanil] | 9% | 18% | 38% | 27% | 21% | – |
| CCc1ccc(C(=O)NN(C(=O)c2cc(C)cc(C)c2)C(C)(C)C)cc1 [tebufenozide] | 40% | 59% | 71% | 67% | 40% | Beet Armyworm Mortality (%) (Beet Armyworm larvae; With Rain (approximately 25 millimeters of water by spray bar), 300 parts per million suspension): 28%; Beet Armyworm Mortality (%) (Beet Armyworm larvae; Without Rain, rice plants sprayed with 300 parts per million suspension): 90%; Beet Armyworm Control (%) (beet armyworm): 35% |
| dinitro-(1-methylheptyl) phenyl crotonate [dinocap] | 3% | 40% | 49% | 47% | 19% | – |
| CCOc1cc(Oc2ccc(C(F)(F)F)cc2Cl)ccc1[N+](=O)[O-] [oxyfluorfen] | 17% | 152% | 66% | 137% | 55% | – |
